Tests used:
Format in all cases: cell-based, human
[1] = test system: RXF 393; test: NCI-60 SRB assay, RXF 393 (Renal Cancer); settings: 10 µM, 48 h; for G%: growth vs untreated control
Experimental: (§1) Primary anticancer assay was performed on a panel of 60 human cancer cell lines derived from nine neoplastic diseases, in accordance with the protocol of the Drug Evaluation Branch, National Cancer Institute, Bethesda, Maryland, USA[22]. Cells were incubated with tested compounds at 10 µM for 48 h. The growth percentage was evaluated spectrophotometrically using a protein binding dye, SRB. Results for each tested compound were reported as the percent of growth of treated cells when compared to untreated control cells.
(§2) To better compare the activity profile of these two series of compounds, compounds 5 and 8 were selected and then evaluated towards a panel of sixty cancer cell lines corresponding to nine different cancer types, i.e. leukaemia, melanoma, as well as lung, colon, central nervous system, ovarian, renal, prostate and breast cancers (NCI evaluation). Indeed, it is now well established that the growth inhibitory patterns of anticancer drugs against the NCI-60 cell line panel correlated well with their modes of action. For example, compounds that bind to tubulin have similar growth inhibition patterns regardless of which site on tubulin they bind[30]. […] Compounds were tested using the sulforhodamine B (SRB) assay that provides a direct cell density index. The amount of dye incorporated by the cells increases with the increase of the total protein biomass. Cells were incubated for 48 h with compounds at 10 µM concentration, then cell growth was evaluated spectrophotometrically and presented as the percent of untreated control cells. Values of the most sensitive cell lines were compared to those obtained with JMV5038 (Figure 4, for all data see SI).

[2] = test system: HOP-92; test: NCI-60 SRB assay, HOP-92 (NSCLC); settings: 10 µM, 48 h; for G%: growth vs untreated control;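 as to Mean G% - G%: mean growth across the NCI-60 panel minus this line's growth with positive meaning more sensitive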
Experimental: as §1, §2

[3] = test system: COLO 205; test: NCI-60 SRB assay, COLO 205 (Colon Cancer); settings: 10 µM, 48 h; for G%: growth vs untreated control
Experimental: as §1, §2

[4] = test system: OVCAR-5; test: NCI-60 SRB assay, OVCAR-5 (Ovarian Cancer); settings: 10 µM, 48 h; for G%: growth vs untreated control;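 as to Mean G% - G%: mean growth across the NCI-60 panel minus this line's growth with positive meaning more sensitive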
Experimental: as §1, §2

[5] = test system: UACC-62; test: NCI-60 SRB assay, UACC-62 (Melanoma); settings: 10 µM, 48 h; for G%: growth vs untreated control
Experimental: as §1, §2

[6] = test system: NCI-H460; test: NCI-60 SRB assay, NCI-H460 (NSCLC); settings: 10 µM, 48 h; for G%: growth vs untreated control
Experimental: as §1, §2

[7] = test system: MDA-MB-435 cells; test: Immunofluorescent staining for actin localisation (confocal microscopy); settings: 5 µM, 20 h
Experimental: To evaluate the effect of compound treatment on cell morphology and stress actin fibres, an immunofluorescence imaging of cells was performed as previously described. MDA-MB-435 cells were seeded on cover slips in petri dishes and allowed to grow for 24 h. After cell growth, cells were treated with the vehicule (control cells) or with JMV5038, compound 5 or 8 at 5 µM for 20 h. Then cells were fixed using Antigenfix for 20 min and permeabilized using 0.2% Triton X-100 for 4 min at room temperature. Actin was stained using a primary human anti-actin antibody (made from mouse) and a secondary Alexa Fluor 568-conjugated goat anti-mouse antibody. Both of them were incubated 1 h at room temperature. Nuclei were counter-stained using Hoechst 33342. Representative images were obtained using a Zeiss LSM 780 inverted confocal microscopy. Confocal fluorescence microscopy was performed on fixed cells under a 543 nm wavelength excitation for AlexaFluor568, and 405 nm for nuclei, and visualised at 620 nm (red) and 450 nm (blue) respectively.
In our previous study, we reported that JMV5038 led to changes in the cell morphology, concomitant with a disruption of the actin network. Morphological changes in MDA-MB-435 cells induced by compounds 5 or 8 were investigated and compared to those induced by JMV5038. For this purpose, fixed and actin immunostained MDA-MB-435 cells were imaged by confocal microscopy (Figure 6). Control cells treated with DMSO (20 h, 5 µM concentration) were spread and the tensile forces of actin stress fibres stretched the cell-adhesive phenotype.

[8] = test system: MDA-MB-468; test: NCI-60 SRB assay, MDA-MB-468 (Breast Cancer); settings: 10 µM, 48 h; for G%: growth vs untreated control;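 as to Mean G% - G%: mean growth across the NCI-60 panel minus this line's growth with positive meaning more sensitive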
Experimental: as §1, §2

[9] = test system: UO-31; test: NCI-60 SRB assay, UO-31 (Renal Cancer); settings: 10 µM, 48 h; for G%: growth vs untreated control
Experimental: as §1, §2

[10] = test system: TK-10; test: NCI-60 SRB assay, TK-10 (Renal Cancer); settings: 10 µM, 48 h; for G%: growth vs untreated control;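 as to Mean G% - G%: mean growth across the NCI-60 panel minus this line's growth with positive meaning more sensitive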
Experimental: as §1, §2

[11] = test system: OVCAR-4; test: NCI-60 SRB assay, OVCAR-4 (Ovarian Cancer); settings: 10 µM, 48 h; for G%: growth vs untreated control
Experimental: as §1, §2

[12] = test system: MDA-MB-435 melanoma cells; test: Neutral red uptake (NRU) viability assay, MDA-MB-435; settings: Homo sapiens, MDA-MB-435; NRU assay, 72 h, mean ± SD of three experiments
Experimental: Melanoma human cancer cell line (A375 and MDA-MB-435) were obtained from ATCC. The NIH-3T3 cell line was generously gifted by the ANSM (French National Agency for Medicines and Health Products Safety, Vendargues, France). Cells were cultured in Dulbecco’s Modified Eagle Medium (DMEM, Sigma Aldrich) supplemented with 10% heat-inactivated foetal calf serum (FCS, Gibco), 2 mM glutamax (Gibco), 100 IU/mL penicillin G sodium (Sigma Aldrich), 100 lU/mL streptomycin sulphate (Sigma Aldrich). The cells were allowed to grow at 37 °C in a fully humidified atmosphere containing 5% CO2.
A viability assay was used to evaluate the cytotoxic activity on A375 and MDA-MB-435 melanoma cells as previously described. According to OCDE/ICCVAM guidance n°129, NRU assay was also used to evaluate the toxicity on the non-cancerous NIH-3T3 cells. Cells were seeded at a final concentration of 2000 cells/well (A375), 3000 cells/well (NIH-3T3) or 7500 cells/well (MDA-MB-435) in 96-well microtiter plates for 24 h. Then, cells were exposed to two negative controls (1% DMSO in culture medium (vehicle) and culture medium alone), or to different compounds freshly dissolved in DMSO, in a range of concentration from 0.01 to 40 µM (six wells per concentration). After 72 h of incubation, cells were stained with new medium containing 50 µg/mL of neutral red (3-amino-7-dimethylamino-2-methylphenazine hydrochloride, Sigma Aldrich) at 37 °C for 2 h. The neutral red medium solution was then removed and the wells were washed with PBS. Finally, 100 µL of solution containing ethanol, acetic acid and water (50/1/49 v/v/v respectively) were added into the wells and the absorbance was measured at 540 nm using the microplate reader 352 Multiscan MS (Labsystems). Cell survival rates were normalised to the absorbance values of untreated control cells. IC50 was obtained using a logistic regression model on Graphpad Prism 5.0 software. Results are given as the mean ± standard deviation (SD) of three independent experiments. Statistical analysis was performed using the Student’s t-test.

[13] = test system: CCRF-CEM; test: NCI-60 SRB assay, CCRF-CEM (Leukemia); settings: 10 µM, 48 h; for G%: growth vs untreated control
Experimental: as §1, §2

[14] = test system: SK-MEL-5; test: NCI-60 SRB assay, SK-MEL-5 (Melanoma); settings: 10 µM, 48 h; for G%: growth vs untreated control
Experimental: as §1, §2

[15] = test system: IGROV1; test: NCI-60 SRB assay, IGROV1 (Ovarian Cancer); settings: 10 µM, 48 h; for G%: growth vs untreated control
Experimental: as §1, §2

SMILES | Mean G% - G% [2] | G% [2] | Mean G% - G% [3] | G% [3] | Mean G% - G% [4] | G% [4] | Mean G% - G% [5] | G% [5] | Mean G% - G% [6] | G% [6] | Mean G% - G% [8] | G% [8] | Mean G% - G% [9] | G% [9] | Mean G% - G% [10] | G% [10] | Mean G% - G% [11] | G% [11] | IC50 [12] [µM] | Mean G% - G% [14] | other results
C[C@@H]1NC(c2ccc(N=[N+]=[N-])cc2)=Nc2nc3ccccn3c2C1=O [Compound 5, (4S)-4-methyl-2-(4-azidophenyl)-3,4-dihydro-5H-pyrido[1’,2’:1,2]imidazo[4,5-d][1,3]diazepin-5-one] | -17,00% | 102,26% | 5,95% | 79,31% | -22,84% | 108,10% | 17,97% | 67,29% | -8,41% | 93,67% | 11,88% | 73,38% | 15,67% | 69,59% | -48,01% | 133,27% | -3,32% | 88,58% | 4.75 ± 0.21 | 14,40% | Mean G% - G% [1]: -1,17%; G% [1]: 86,43%; morphological changes / actin network [7]: disorganisation of the actin cytoskeleton; Mean G% - G% [13]: -12,13%; G% [13]: 97,39%; G% [14]: 70,86%; Mean G% - G% [15]: 10,76%; G% [15]: 74,50%
C[C@@H]1NC(c2csc3ccccc23)=Nc2nc3ccccn3c2C1=O [Compound 8, (4S)-4-methyl-2-benzothiophen-3-yl-3,4-dihydro-5H-pyrido[1’,2’:1,2]imidazo[4,5-d][1,3]diazepin-5-one] | 34,61% | 40,26% | -25,43% | 100,30% | -32,82% | 107,69% | -12,07% | 86,94% | -10,32% | 85,19% | 4,18% | 70,69% | 22,87% | 52,00% | -36,86% | 111,73% | 0,79% | 74,08% | 10.12 ± 0.08 | 12,92% | morphological changes / actin network [7]: disorganisation of the actin cytoskeleton; G% [14]: 61,95%; Mean G% - G% [15]: 14,89%; G% [15]: 59,98%
[N-]=[N+]=NCCCC[C@@H]1NC(c2ccc(Br)cc2)=Nc2nc3ccccn3c2C1=O [Compound 16, (4S)-4-(4-azidobutyl)-2-(4-bromophenyl)-3,4-dihydro-5H-pyrido[1’,2’:1,2]imidazo[4,5-d][1,3]diazepin-5-one] | -11,05% | 102,82% | -15,42% | 107,19% | -11,70% | 103,47% | 11,94% | 79,83% | 0,98% | 90,79% | -6,46% | 98,23% | 27,99% | 63,78% | -38,14% | 129,91% | -2,91% | 94,68% | 4.12 ± 0.22 | 3,83% | Mean G% - G% [1]: 10,83%; G% [1]: 80,94%; Mean G% - G% [13]: -6,17%; G% [13]: 97,94%; G% [14]: 87,94%; Mean G% - G% [15]: 70,16%; G% [15]: 21,61%
C[C@@H]1NC(c2ccc(Br)cc2)=Nc2nc3ccccn3c2C1=O [JMV5038] | -5,24% | 59,48% | 27,91% | 26,33% | -28,14% | 82,38% | 5,01% | 49,23% | 21,74% | 32,50% | 54,74% | -0,50% | -7,77% | 62,01% | -55,42% | 109,66% | -23,22% | 77,46% | 1.3 ± 0.53 | 22,34% | Mean G% - G% [1]: -13,94%; G% [1]: 68,18%; morphological changes / actin network [7]: disorganisation of the actin cytoskeleton; Mean G% - G% [13]: -25,20%; G% [13]: 79,44%; G% [14]: 31,90%; Mean G% - G% [15]: 11,16%; G% [15]: 43,08%
